{"source": "paper PMC9127750", "about": "“Structure-based design of CDC42 effector interaction inhibitors for the treatment of cancer” (Cell reports, 2022)", "test_in_all_cases": "cells", "key": {"RERF-LC-MS": {"tested_on": "RERF-LC-MS", "conditions": "read-out: IC50 ARN22089", "procedure,_shortened": "(§1)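 CellTiterGlo readout of viable cells after overnight compound exposure at 37°C; cells in own media.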"}, "LOVO": {"tested_on": "LOVO", "conditions": "Homo sapiens, read-out: IC50 ARN22089", "procedure,_shortened": "as §1"}, "U2OS": {"tested_on": "U2OS", "conditions": "Homo sapiens, read-out: IC50 ARN22089", "procedure,_shortened": "as §1"}, "HCC38": {"tested_on": "HCC38", "conditions": "Homo sapiens, HCC38, read-out: IC50 ARN22089", "procedure,_shortened": "as §1"}, "LOU-NH91": {"tested_on": "LOU-NH91", "conditions": "LOU-NH91, read-out: IC50 ARN22089", "procedure,_shortened": "as §1"}, "RKO": {"tested_on": "RKO", "conditions": "Homo sapiens, read-out: IC50 ARN22089", "procedure,_shortened": "as §1"}, "NCI-H1703": {"tested_on": "NCI-H1703", "conditions": "Homo sapiens, NCI-H1703, read-out: IC50 ARN22089", "procedure,_shortened": "as §1"}, "MDAMB231": {"tested_on": "MDAMB231", "conditions": "Homo sapiens, MDA-MB-231, read-out: IC50 ARN22089", "procedure,_shortened": "as §1"}, "SK-OV3": {"tested_on": "SK-OV3", "conditions": "Homo sapiens, SK-OV-3, read-out: IC50 ARN22089", "procedure,_shortened": "as §1"}, "HCC1569": {"tested_on": "HCC1569", "conditions": "Homo sapiens, HCC1569, read-out: IC50 ARN22089", "procedure,_shortened": "as §1"}, "MCAS": {"tested_on": "MCAS", "conditions": "read-out: IC50 ARN22089", "procedure,_shortened": "as §1"}, "Hutu 80": {"tested_on": "Hutu 80", "conditions": "Homo sapiens, HuTu80, read-out: IC50 ARN22089", "procedure,_shortened": "as §1"}, "AsPC-1": {"tested_on": "AsPC-1", "conditions": "Homo sapiens, ASPC1, read-out: IC50 ARN22089", "procedure,_shortened": "as §1"}, "U-937": {"tested_on": "U-937", "conditions": "Homo sapiens, U-937, read-out: IC50 ARN22089", "procedure,_shortened": "as §1"}, "BT-20": {"tested_on": "BT-20", "conditions": "Homo sapiens, BT-20, read-out: IC50 ARN22089", "procedure,_shortened": "as §1"}, "SW480": {"tested_on": "SW480", "conditions": "Homo sapiens", "procedure,_shortened": "as §1"}, "SNU840": {"tested_on": "SNU840", "conditions": "SNU-840, read-out: IC50 ARN22089", "procedure,_shortened": "as §1"}, "U87MG": {"tested_on": "U87MG", "conditions": "Homo sapiens, U-87 MG, read-out: IC50 ARN22089", "procedure,_shortened": "as §1"}, "A375": {"tested_on": "A375", "conditions": "Homo sapiens", "procedure,_shortened": "as §1"}, "RPMI 8226": {"tested_on": "RPMI 8226", "conditions": "Homo sapiens, RPMI-8226, read-out: IC50 ARN22089", "procedure,_shortened": "as §1"}, "SNU-1": {"tested_on": "SNU-1", "conditions": "Homo sapiens, SNU1, read-out: IC50 ARN22089", "procedure,_shortened": "as §1"}, "OCI-AML5": {"tested_on": "OCI-AML5", "conditions": "Homo sapiens, OCI-AML-5, read-out: IC50 ARN22089", "procedure,_shortened": "as §1"}, "EFO-27": {"tested_on": "EFO-27", "conditions": "Homo sapiens, EFO-27, read-out: IC50 ARN22089", "procedure,_shortened": "as §1"}, "SK-N-SH": {"tested_on": "SK-N-SH", "conditions": "Homo sapiens, read-out: IC50 ARN22089", "procedure,_shortened": "as §1"}, "NCI-H1563": {"tested_on": "NCI-H1563", "conditions": "Homo sapiens, NCI-H1563, read-out: IC50 ARN22089", "procedure,_shortened": "as §1"}, "HT-1080": {"tested_on": "HT-1080", "conditions": "Homo sapiens, HT-1080, read-out: IC50 ARN22089", "procedure,_shortened": "as §1"}, "PC3": {"tested_on": "PC3", "conditions": "Homo sapiens, PC-3, read-out: IC50 ARN22089", "procedure,_shortened": "as §1"}, "SK.BR-3": {"tested_on": "SK.BR-3", "conditions": "Homo sapiens, SK-BR-3, read-out: IC50 ARN22089", "procedure,_shortened": "as §1"}, "Saos-2 EC": {"tested_on": "Saos-2 EC", "conditions": "Homo sapiens, SAOS-2, read-out: IC50 ARN22089", "procedure,_shortened": "as §1"}, "MDAMB435": {"tested_on": "MDAMB435", "conditions": "Homo sapiens, MDA-MB-435, read-out: IC50 ARN22089", "procedure,_shortened": "as §1"}, "NCI-H1581": {"tested_on": "NCI-H1581", "conditions": "Homo sapiens, NCI-H1581, read-out: IC50 ARN22089", "procedure,_shortened": "as §1"}, "OV56": {"tested_on": "OV56", "conditions": "OV56, read-out: IC50 ARN22089", "procedure,_shortened": "as §1"}, "LnCap": {"tested_on": "LnCap", "conditions": "Homo sapiens, read-out: IC50 ARN22089", "procedure,_shortened": "as §1"}, "NCI-H2009": {"tested_on": "NCI-H2009", "conditions": "Homo sapiens, NCI-H2009, read-out: IC50 ARN22089", "procedure,_shortened": "as §1"}, "MKN-1": {"tested_on": "MKN-1", "conditions": "Homo sapiens, MKN-1, read-out: IC50 ARN22089", "procedure,_shortened": "as §1"}, "A2058": {"tested_on": "A2058", "conditions": "Homo sapiens, A2058, read-out: IC50 ARN22089", "procedure,_shortened": "as §1"}, "A498": {"tested_on": "A498", "conditions": "Homo sapiens, A498, read-out: IC50 ARN22089", "procedure,_shortened": "as §1"}, "NCI-H292": {"tested_on": "NCI-H292", "conditions": "Homo sapiens, NCI-H292, read-out: IC50 ARN22089", "procedure,_shortened": "as §1"}, "DV90": {"tested_on": "DV90", "conditions": "Homo sapiens, DV-90, read-out: IC50 ARN22089", "procedure,_shortened": "as §1"}, "LN229": {"tested_on": "LN229", "conditions": "Homo sapiens, LN-229, read-out: IC50 ARN22089", "procedure,_shortened": "as §1"}, "KG-1": {"tested_on": "KG-1", "conditions": "Homo sapiens, KG-1, read-out: IC50 ARN22089", "procedure,_shortened": "as §1"}}, "note": "Where two headings read alike, the source gives them in different places."}
{"molecule": "CN(C)c1cccc(Nc2cc(-c3ccccc3)nc(C3CCNCC3)n2)c1", "note": "[ARN22089, N1,N1-dimethyl-N3-(6-phenyl-2-(piperidin-4-yl)pyrimidin-4-yl)benzene-1,3-diamine]", "values": [{"measurement": "IC50", "setting": "RERF-LC-MS", "result": 12, "unit": "µM"}, {"measurement": "IC50", "setting": "LOVO", "result": 7.8, "unit": "µM"}, {"measurement": "IC50", "setting": "U2OS", "result": 11, "unit": "µM"}, {"measurement": "IC50", "setting": "HCC38", "result": 10, "unit": "µM"}, {"measurement": "IC50", "setting": "LOU-NH91", "result": 29, "unit": "µM"}, {"measurement": "IC50", "setting": "RKO", "result": 3.9, "unit": "µM"}, {"measurement": "IC50", "setting": "NCI-H1703", "result": 37, "unit": "µM"}, {"measurement": "IC50", "setting": "MDAMB231", "result": 10, "unit": "µM"}, {"measurement": "IC50", "setting": "SK-OV3", "result": 7.6, "unit": "µM"}, {"measurement": "IC50", "setting": "HCC1569", "result": 11, "unit": "µM"}, {"measurement": "IC50", "setting": "MCAS", "result": 4.6, "unit": "µM"}, {"measurement": "IC50", "setting": "Hutu 80", "result": 12, "unit": "µM"}, {"measurement": "IC50", "setting": "AsPC-1", "result": 9.9, "unit": "µM"}, {"measurement": "IC50", "setting": "U-937", "result": 3.5, "unit": "µM"}, {"measurement": "IC50", "setting": "BT-20", "result": 29, "unit": "µM"}, {"measurement": "IC50", "setting": "SW480; SW480, read-out: IC50 ARN22089", "result": 3.4, "unit": "µM"}, {"measurement": "IC50", "setting": "SW480; SW480, read-out: IC50 SW480", "result": 8.61, "unit": "µM"}, {"measurement": "IC50", "setting": "SNU840", "result": 6.5, "unit": "µM"}, {"measurement": "IC50", "setting": "U87MG", "result": 6.1, "unit": "µM"}, {"measurement": "IC50", "setting": "A375; A-375, read-out: IC50 A375", "result": 4.92, "unit": "µM"}, {"measurement": "IC50", "setting": "A375; A-375, read-out: IC50 ARN22089", "result": 4.5, "unit": "µM"}, {"measurement": "IC50", "setting": "RPMI 8226", "result": 5.8, "unit": "µM"}, {"measurement": "IC50", "setting": "SNU-1", "result": 7.8, "unit": "µM"}, {"measurement": "IC50", "setting": "OCI-AML5", "result": 15, "unit": "µM"}, {"measurement": "IC50", "setting": "EFO-27", "result": 12, "unit": "µM"}, {"measurement": "IC50", "setting": "SK-N-SH", "result": 8.1, "unit": "µM"}, {"measurement": "IC50", "setting": "NCI-H1563", "result": 16, "unit": "µM"}, {"measurement": "IC50", "setting": "HT-1080", "result": 11, "unit": "µM"}, {"measurement": "IC50", "setting": "PC3", "result": 9.1, "unit": "µM"}, {"measurement": "IC50", "setting": "SK.BR-3", "result": 6.7, "unit": "µM"}, {"measurement": "IC50", "setting": "Saos-2 EC", "result": 9, "unit": "µM"}, {"measurement": "IC50", "setting": "MDAMB435", "result": 10, "unit": "µM"}, {"measurement": "IC50", "setting": "NCI-H1581", "result": 24, "unit": "µM"}, {"measurement": "IC50", "setting": "OV56", "result": 13, "unit": "µM"}, {"measurement": "IC50", "setting": "LnCap", "result": 14, "unit": "µM"}, {"measurement": "IC50", "setting": "NCI-H2009", "result": 15, "unit": "µM"}, {"measurement": "IC50", "setting": "MKN-1", "result": 12, "unit": "µM"}, {"measurement": "IC50", "setting": "A2058", "result": 3.7, "unit": "µM"}, {"measurement": "IC50", "setting": "A498", "result": 10, "unit": "µM"}, {"measurement": "IC50", "setting": "NCI-H292", "result": 12, "unit": "µM"}, {"measurement": "IC50", "setting": "DV90", "result": 29, "unit": "µM"}, {"measurement": "IC50", "setting": "LN229", "result": 7.8, "unit": "µM"}, {"measurement": "IC50", "setting": "KG-1", "result": 14, "unit": "µM"}]}
